Source: US20230040386A1, “URSODEOXYCHOLIC ACID-CONTAINING AGENT FOR TREATING OR PREVENTING PRESBYOPIA” (priority 2018, published 2023)

Legend:
Type in all cases: in vivo, C57BL/6J mice
lens [1] = assay: Pharmacological Test 8: lens elasticity, glycoursodeoxycholic acid once-daily for 7 days
Description: (§1) A vehicle comprising 0.1% (w/v) of ethyl pyruvate, 0.269% (w/v) of sodium dihydrogenphosphate monohydrate (NaH2PO4H2O), 0.433% (w/v) of disodium hydrogenphosphate (Na2HPO4), 0.2% (w/v) of hydroxypropyl methylcellulose, 0.5% (w/v) of NaCl was prepared. Glycoursodeoxycholic acid was sonicated with the addition of the vehicle to prepare a 1.0% (w/v) suspension. The total amount of each sample to be used in one day was prepared before use. 1) Each test sample (2.5 μL/eye) was instilled into both eyes of 8-month-old C57BL/6J mice with a Pipetman once per day (QD; around 13:30) for 7 days. 2) Twenty-four hours after the final instillation, the mice were euthanized by carbon dioxide inhalation, and then the eyeballs were extracted and rinsed with Hank's balanced salt solution (HBSS). 3) The sclera near the optic nerve was cut with a razor, the lens was removed through the incision, and the removed lens was immersed in HBSS. 4) The lens was placed on a glass slide, and an all-in-one fluorescence microscope BZ-9000 (Keyence) was used to capture an image of the lens (image a). […] 6) A change in the lens diameter was calculated from Equation 1 wherein the lens diameter of Image a is subtracted from the lens diameter of Image b, as described below. Then, the lens elasticity improvement of each sample group compared with the vehicle control group was calculated from Equation 2 described below. […]

lens [2] = assay: Pharmacological Test 3: lens elasticity after instillation of ursodeoxycholic acid (free form)
Description: A vehicle comprising 0.1% (w/v) of ethyl pyruvate, 0.269% (w/v) of sodium dihydrogenphosphate monohydrate (NaH2PO4H2O), 0.433% (w/v) of disodium hydrogenphosphate (Na2HPO4), 0.2% (w/v) of hydroxypropyl methylcellulose, and 0.5% (w/v) of NaCl was prepared. Ursodeoxycholic acid was sonicated with the addition of the vehicle to prepare a 1.5% (w/v) suspension. The resulting 1.5% (w/v) suspension was diluted with the vehicle to prepare a 0.5% (w/v) suspension. Further, the resulting 0.5% (w/v) suspension was diluted with the vehicle to prepare a 0.15% (w/v) suspension. The total amount of each sample to be used in one day was prepared before use. EV06 was sonicated with the addition of the vehicle to prepare a 1.5% (w/v) solution. The total amount of the sample to be used in one day was prepared before use. 1) Each test sample (2.5 μL/eye) was instilled into the right eye of 8-month-old C57BL/6J mice with a Pipetman 3 times per day (around 9:00, 13:00 and 17:00) for 12 to 15 days. 2) After the final instillation, the mice were euthanized by carbon dioxide inhalation, and then the eyeballs were extracted and rinsed with Hank's balanced salt solution (HBSS). 3) The sclera near the optic nerve was cut with a razor, the lens was removed through the incision, and the removed lens was immersed in HBSS. 4) The lens was placed on a glass slide, and an all-in-one fluorescence microscope BZ-9000 (Keyence) was used to capture an image of the lens (Image a). 5) Next, one cover glass (Corning^(registered trade mark) 22×22 mm Square) was placed on the lens, and an image in which the thickness of the lens changed due to the weight was similarly captured (image b). 6) A change in the lens diameter was calculated from Equation 1 wherein the lens diameter of Image a is subtracted from the lens diameter of Image b, as described below. Then, the lens elasticity improvement of each sample group compared with the vehicle control group was calculated from Equation 2 described below. The mean of the vehicle control group was based on 5 eyes, the mean of each ursodeoxycholic acid sample group was based on 10 eyes, and the mean of the EV06 sample group was based on 10 eyes. Change in lens diameter=Lens diameter in Image b of each test sample−Lens diameter in Image a of each test sample (Equation 1) Lens elasticity improvement of each sample group=Mean change in lens diameter of each Test sample group−Mean change in lens diameter of Vehicle control group (Equation 2)

lens [3] = assay: Pharmacological Test 2: lens elasticity after instillation of sodium ursodeoxycholate; settings: for Lens elasticity improvement: 2.5 μL/eye, 3 times per day, 12 to 15 days, vs vehicle control
Description: A vehicle comprising 0.1% (w/v) of ethyl pyruvate, 0.269% (w/v) of sodium dihydrogenphosphate monohydrate (NaH2PO4H2O), 0.433% (w/v) of disodium hydrogenphosphate (Na2HPO4), 0.2% (w/v) of hydroxypropyl methylcellulose, 0.5% (w/v) of NaCl was prepared. Sodium ursodeoxycholate was sonicated with the addition of the vehicle to prepare a 1.5% (w/v) suspension. The resulting 1.5% (w/v) suspension was diluted with the vehicle to prepare a 0.5% (w/v) suspension. Further, the resulting 0.5% (w/v) suspension was diluted with the vehicle to prepare a 0.15% (w/v) suspension. The total amount of each sample to be used in one day was prepared before use. EV06 was sonicated with the addition of the vehicle to prepare a 1.5% (w/v) solution. The total amount of the sample to be used in one day was prepared before use. 1) Each test sample (2.5 μL/eye) was instilled into the right eye of 8-month-old C57BL/6J mice with a Pipetman 3 times per day (around 9:00, 13:00 and 17:00) for 12 to 15 days. 2) After the final instillation, the mice were euthanized by carbon dioxide inhalation, and then the eyeballs were extracted and rinsed with Hank's balanced salt solution (HBSS)). 3) The sclera near the optic nerve was cut with a razor, the lens was removed through the incision, and the removed lens was immersed in HBSS. 4) The lens was placed on a glass slide, and an all-in-one fluorescence microscope BZ-9000 (Keyence) was used to capture an image of the lens (Image a). 5) Next, one cover glass (Corning^(registered trade mark) 22×22 mm Square) was placed on the lens, and an image in which the thickness of the lens changed due to the weight was similarly captured (Image b). 6) A change in the lens diameter was calculated from Equation 1 wherein the lens diameter of Image a is subtracted from the lens diameter of Image b, as described below. Then, the lens elasticity improvement of each sample group compared with the vehicle control group was calculated from Equation 2 described below. The mean of the vehicle control group was based on 5 eyes, the mean of each sodium ursodeoxycholate sample group was based on 10 eyes, and the mean of the EV06 sample group was based on 10 eyes. Change in lens diameter Lens diameter in image b of each test sample−Lens diameter in Image a of each test sample (Equation 1) Lens elasticity improvement of each sample group=Mean change in lens diameter of each Test sample group−Mean change in lens diameter of Vehicle control group (Equation 2)

lens [4] = assay: Pharmacological Test 7: lens elasticity, tauroursodeoxycholic acid once-daily for 7 days
Description: as §1, with “Tauroursodeoxycholic” for “Glycoursodeoxycholic”, “dissolved” for “sonicated”, “solution.” for “suspension.”, “7-month-old” for “8-month-old”, “(Image” for “(image”

lens [5] = assay: Pharmacological Test 6: lens elasticity, ursodeoxycholic acid methyl ester once-daily for 7 days; settings: for Lens elasticity improvement: QD, 7-month-old mice, vs vehicle control
Description: A vehicle comprising 0.1% (w/v) of ethyl pyruvate, 0.269% (w/v) of sodium dihydrogenphosphate monohydrate […], 0.433% (w/v) of disodium hydrogenphosphate (Na2HPO4), 0.2% (w/v) of hydroxypropyl methylcellulose, 0.5% (w/v) of NaCl was prepared. Ursodeoxycholic acid methyl ester was sonicated with the addition of the vehicle to prepare a 0.3% (w/v) suspension, a 1.0% (w/v) suspension and a 3.0% (w/v) suspension. The total amount of each sample to be used in one day was prepared before use. 1) Each test sample (2.5 μL/eye) was instilled into both eyes of 7-month-old C57BL/6J mice with a Pipetman once per day (QD; around 13:30) for 7 days. 2) Twenty-four hours after the final instillation, the mice were euthanized by carbon dioxide inhalation, and then the eyeballs were extracted and rinsed with Hank's balanced salt solution (HBSS). 3) The sclera near the optic nerve was cut with a razor, the lens was removed through the incision, and the removed lens was immersed in HBSS. 4) The lens was placed on a glass slide, and an all-in-one fluorescence microscope BZ-9000 (Keyence) was used to capture an image of the lens (Image a). 5) Next, one cover glass (Corning^(registered trade mark) 22×22 mm Square) was placed on the lens, and an image in which the thickness of the lens changed due to the weight was similarly captured (Image b). 6) A change in the lens diameter was calculated from Equation 1 wherein the lens diameter of Image a is subtracted from the lens diameter of Image b, as described below. Then, the lens elasticity improvement of each sample group compared with the vehicle control group was calculated from Equation 2 described below. Each mean of the vehicle control group and each ursodeoxycholic acid methyl ester sample group was based on 9 or 10 eyes. Change in lens diameter=Lens diameter in Image b of each test sample−Lens diameter in Image a of each test sample (Equation 1) Lens elasticity improvement of each sample group=Mean change in lens diameter of each Test sample group−Mean change in lens diameter of Vehicle control group (Equation 2)

[6] = 1.5% sample group vs EV06 at the same concentration

`C[C@H](CCC(=O)NCC(=O)O)[C@H]1CC[C@H]2[C@@H]3[C@@H](O)C[C@@H]4C[C@H](O)CC[C@]4(C)[C@H]3CC[C@]12C` [glycoursodeoxycholic acid, N-(3α,7β-Dihydroxy-5β-cholan-24-oyl)glycine] was tested, and the Lens elasticity improvement (lens [1]; 1% (w/v) suspension, QD, 8-month-old mice, vs vehicle control) was 20.1 μm and the “Lens elasticity improvement, in words” value (lens [1]; 1% sample instilled once-daily) was “potent lens elasticity improvement”.

In the case of `C[C@H](CCC(=O)[O-])[C@H]1CC[C@H]2[C@@H]3[C@@H](O)C[C@@H]4C[C@H](O)CC[C@]4(C)[C@H]3CC[C@]12C.[Na+]` [sodium ursodeoxycholate], the “Lens elasticity improving effect compared with EV06, in words” value (lens [2]; [6]) is reported as “stronger than that of EV06”, the “Lens elasticity improving effect, in words” value (lens [2]; all of the 0.15%, 0.5% and 1.5% sample groups (Table 3)) is reported as “potent lens elasticity improving effect” and the Lens elasticity improvement (lens [3]; 0.15% (w/v) sample) is reported as 26.5 μm. For the same compound, the Lens elasticity improvement (lens [3]; 0.5% (w/v) sample) was 34.8 μm, the Lens elasticity improvement (lens [3]; 1.5% (w/v) sample) was 44.7 μm and the “Lens elasticity improving effect compared with EV06, in words” value (lens [3]; [6]) was “stronger than that of EV06”. For the same compound, the “Lens elasticity improving effect, in words” value (lens [3]; all of the 0.15%, 0.5% and 1.5% sample groups) was “potent lens elasticity improving effect”.

`C[C@H](CCC(=O)NCCS(=O)(=O)O)[C@H]1CC[C@H]2[C@@H]3[C@@H](O)C[C@@H]4C[C@H](O)CC[C@]4(C)[C@H]3CC[C@]12C` [tauroursodeoxycholic acid, 3α,7β-Dihydroxy-5β-cholan-24-oic Acid N-(2-Sulfoethyl)amide] was tested, and the Lens elasticity improvement (lens [4]; 1% (w/v) solution, QD, 7-month-old mice, vs vehicle control) was 29.7 μm and the “Lens elasticity improvement, in words” value (lens [4]; 1% sample instilled once-daily) was “potent lens elasticity improvement”.

With `COC(=O)CC[C@@H](C)[C@H]1CC[C@H]2[C@@H]3[C@@H](O)C[C@@H]4C[C@H](O)CC[C@]4(C)[C@H]3CC[C@]12C` [ursodeoxycholic acid methyl ester] the Lens elasticity improvement (lens [5]; 0.3% (w/v) sample) was 13.2 μm, the Lens elasticity improvement (lens [5]; 1% (w/v) sample) was 33.0 μm and the “Lens elasticity improvement, in words” value (lens [5]; 1% and 3% samples instilled once-daily) was “potent lens elasticity improvement”. For the same compound, the Lens elasticity improvement (lens [5]; 3% (w/v) sample) was 46.5 μm.
